# In ChEMBL document CHEMBL1240343, “Transition state analogs of 5'-methylthioadenosine nucleosidase disrupt quorum sensing” (Nat Chem Biol, 2009):
# pIC50, pKd: −log10 of the molar value. Activity calls are given as the source filed them. The calls are words filed in the database; no cut-off is given here.
# How the values were obtained:
# [1] = tested on: Vibrio cholerae; experiment: Antimicrobial activity against Vibrio cholerae N16961 assessed as effect on cell growth up to 1 uM; format: functional, organism-based
# [2] = tested on: Escherichia coli; experiment: Antibacterial activity MTAN-deficient Escherichia coli assessed as induction of growth deffect at 0.5 uM after 16 hrs; format: functional, organism-based
# [3] = molecular target: T1, 5'-methylthioadenosine/S-adenosylhomocysteine nucleosidase (Vibrio cholerae serotype O1 (strain ATCC 39315 / El Tor Inaba N16961)) (UniProt Q9KPI8); details: 1 uM
# T1 sequence (whole entry): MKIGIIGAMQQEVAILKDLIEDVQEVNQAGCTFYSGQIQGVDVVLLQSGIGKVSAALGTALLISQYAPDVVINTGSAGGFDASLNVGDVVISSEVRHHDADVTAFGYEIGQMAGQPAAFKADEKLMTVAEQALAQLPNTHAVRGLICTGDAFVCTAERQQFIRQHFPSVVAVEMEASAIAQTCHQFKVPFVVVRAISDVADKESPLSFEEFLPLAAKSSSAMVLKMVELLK
# [4] = Inhibition of Escherichia coli MTAN
# [5] = tested on: Escherichia coli; experiment: Antibacterial activity Escherichia coli O157:H7 EDL933 assessed as induction of growth deffect at 0.5 uM after 16 hrs; format: functional, organism-based
# [6] = molecular target: T1, 5'-methylthioadenosine/S-adenosylhomocysteine nucleosidase (Vibrio cholerae serotype O1 (strain ATCC 39315 / El Tor Inaba N16961)); details: 1 uM; remark: listed apart in the source
# [7] = molecular target: 5'-methylthioadenosine/S-adenosylhomocysteine nucleosidase (Escherichia coli O157:H7) (UniProt P0AF14); experiment: (§1) Inhibition of Escherichia coli O157:H7 EDL933 MTAN-mediated autoinducer-2 production assessed as inhibition of light induction in quorum-sensing Vibrio harveyi BB120 by luminescence induction assay
# Sequence of 5'-methylthioadenosine/S-adenosylhomocysteine nucleosidase (Escherichia coli O157:H7) (P0AF14 whole entry, looked up): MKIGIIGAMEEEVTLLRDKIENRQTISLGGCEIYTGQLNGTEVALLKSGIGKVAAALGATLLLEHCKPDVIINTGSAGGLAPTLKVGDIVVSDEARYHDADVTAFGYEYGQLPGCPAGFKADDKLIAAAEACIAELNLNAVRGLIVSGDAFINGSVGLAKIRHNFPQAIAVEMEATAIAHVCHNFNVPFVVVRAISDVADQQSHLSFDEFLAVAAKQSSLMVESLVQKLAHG
# [8] = molecular target: 5'-methylthioadenosine/S-adenosylhomocysteine nucleosidase (Escherichia coli O157:H7, UniProt P0AF14); experiment: as §1
# Sequence of 5'-methylthioadenosine/S-adenosylhomocysteine nucleosidase (Escherichia coli O157:H7, UniProt P0AF14) (P0AF14 whole entry): as the sequence (P0AF14 whole entry, looked up) above
# [9] = tested on: Vibrio cholerae; experiment: Antibacterial activity against Vibrio cholerae N16961 at 2.5 uM; format: functional, organism-based
# [10] = tested on: Escherichia coli; experiment: Antibacterial activity Escherichia coli O157:H7 EDL933 at 2.5 uM; format: functional, organism-based
# [11] = tested on: Vibrio harveyi; experiment: Inhibition of autoinducer-2 production in Vibrio harveyi BB120 assessed as inhibition of light induction by luminescence induction assay; format: functional; details: Vibrio harveyi ATCC BAA-1116
# [12] = tested on: Vibrio cholerae; experiment: Antibacterial activity against Vibrio cholerae N16961 at 1 uM; format: functional, organism-based
# [13] = tested on: Escherichia coli; experiment: Inhibition of Escherichia coli O157:H7 EDL933 biofilm production at 1 uM after 24 hrs; format: functional; details: O157:H7 EDL933, 24 h
# [14] = tested on: Escherichia coli; experiment: Antibacterial activity Escherichia coli O157:H7 EDL933 at 1 uM; format: functional, organism-based
# [15] = tested on: Vibrio cholerae; experiment: Inhibition of Vibrio cholerae N16961 biofilm production at 1 uM after 24 hrs; format: functional; details: N16961, 24 h
# [16] = tested on: Vibrio cholerae; experiment: Antibacterial activity against Vibrio cholerae N16961 at 1 uM after 24 hrs; format: functional, organism-based
# [17] = tested on: Escherichia coli; experiment: Antibacterial activity against Escherichia coli O157:H7 EDL933 at 1 uM after 24 hrs; format: functional, organism-based
# [18] = molecular target: T2, 5'-methylthioadenosine/S-adenosylhomocysteine nucleosidase (Vibrio cholerae serotype O1 (strain ATCC 39315 / El Tor Inaba N16961), UniProt Q9KPI8); experiment: Binding affinity to His-tagged Vibrio cholerae recombinant MTAN expressed in Escherichia coli […]
# T2 sequence (Q9KPI8 whole entry): T1 sequence (whole entry)
# [19] = tested on: Escherichia coli; experiment: Ratio of Km to Ki for Escherichia coli MTAN
structure (smiles),measurement,setting,value
CSC[C@H]1CN(Cc2c[nH]c3c(N)ncnc23)C[C@@H]1O,Activity,[1],inactive
same,Activity,[2],inactive
same,inhibition,[3],Active
same,pKd,[4],12.70
same,Activity,[5],inactive
same,inhibition,[6],Active
same,inhibition,[7],Dose-dependent effect
same,pIC50,[8],6.22
CCCCSC[C@H]1CN(Cc2c[nH]c3c(N)ncnc23)C[C@@H]1O,Activity,[1],inactive
same,Activity,[2],inactive
same,Activity,[9],inactive
same,pKd,[4],12.52
same,Activity,[10],inactive
same,inhibition,[11],inactive
same,Activity,[5],inactive
same,Activity,[12],inactive
same,inhibition at 1 µM,[13],18%
same,Activity,[14],inactive
same,inhibition at 1 µM,[15],71%
same,inhibition,[7],Dose-dependent effect
same,Activity,[16],inactive
same,Activity,[17],inactive
Nc1ncnc2c([C@@H]3N[C@H](CSCc4ccccc4)[C@@H](O)[C@H]3O)c[nH]c12,pKd,[18],8.68
CCSC[C@H]1CN(Cc2c[nH]c3c(N)ncnc23)C[C@@H]1O,Activity,[1],inactive
Nc1ncnc2c(CN3C[C@H](CSc4ccc(Cl)cc4)[C@@H](O)C3)c[nH]c12,Activity,[1],inactive
same,Ratio,[19],1e+08
same,pKd,[4],13.33
same,pKd,[18],9.48
CCSC[C@H]1N[C@@H](c2c[nH]c3c(N)ncnc23)[C@H](O)[C@@H]1O,pKd,[18],8.80
CSC[C@H]1N[C@@H](c2c[nH]c3c(N)ncnc23)[C@H](O)[C@@H]1O,pKd,[18],8.00
Nc1ncnc2c(CN3C[C@H](CSCc4ccccc4)[C@@H](O)C3)c[nH]c12,pKd,[18],10.19
Nc1ncnc2c([C@@H]3N[C@H](CSc4ccc(Cl)cc4)[C@@H](O)[C@H]3O)c[nH]c12,pKd,[18],8.66
